Results on four compounds are retold here after US10259818B2, “Bicyclic azaheterocyclobenzylamines as PI3K inhibitors” (Incyte Corporation, priority 2012, dated 2019).

One assay deals with PI3Kδ (Homo sapiens (Human), UniProt O00329). Put plainly: PI3K enzyme assay, [γ-33P]ATP filter plate (Example A2). The assay is classed as biochemical. The following applies: Assay A2 (filter plate, 1000 μM ATP). As for the experimental part:
Example A2: PI3K Enzyme Assay
Lipid kinase substrate, phosphoinositol-4,5-bisphosphate (PIP2), are purchased from Echelon Biosciences (Salt Lake City, Utah). PI3K isoforms α, β, δ and γ are purchased from Millipore (Bedford, Mass.). ATP, MgCl2, DTT, EDTA, MOPS and CHAPS are purchased from Sigma-Aldrich (St. Louis, Mo.).
The kinase reaction are conducted in clear-bottom 96-well plate from Thermo Fisher Scientific in a final volume of 24 μL. Inhibitors are first diluted serially in DMSO and added to the plate wells before the addition of other reaction components. The final concentration of DMSO in the assay is 0.5%. The PI3K assays are carried out at room temperature in 20 mM MOPS, pH 6.7, 10 mM MgCl2, 5 mM DTT and CHAPS 0.03%. The reaction mixture is prepared containing 50 μM PIP2, kinase and varying concentration of inhibitors. Reactions are initiated by the addition of ATP containing 2.2 μCi [γ-^33P]ATP to a final concentration of 1000 μM. The final concentration of PI3K isoforms α, β, δ and γ in the assay were 1.3, 9.4, 2.9 and 10.8 nM, respectively. Reactions are incubated for 180 minutes and terminated by the addition of 100 μL of 1 M potassium phosphate pH 8.0, 30 mM EDTA quench buffer. A 100 μL aliquot of the reaction solution are then transferred to 96-well Millipore MultiScreen IP […] PVDF filter plate (The filter plate is prewetted with 200 μL 100% ethanol, distilled water, and 1 M potassium phosphate pH 8.0, respectively). The filter plate is aspirated on a Millipore Manifold under vacuum and washed with 18×200 μL wash buffer containing 1 M potassium phosphate pH 8.0 and 1 mM ATP. After drying by aspiration and blotting, the plate is air dried in an incubator at 37° C. overnight. Packard TopCount adapter (Millipore) is then attached to the plate followed with addition of 120 μL Microscint 20 scintillation cocktail (Perkin Elmer) in each well. After the plate sealing, the radioactivity of the product is determined by scintillation counting on Topcount (Perkin-Elmer). IC50 determination is performed by fitting the curve of percent control activity versus the log of the inhibitor concentration using the GraphPad Prism 3.0 software.

Assay [1] deals with SUDHL-6 cell line (diffuse large B cell lymphoma). The assay is described as follows: SUDHL-6 cell proliferation assay (Example B3). The assay is classed as cell-based. The settings on record: SUDHL-6 cells, 3 days, Cell Titer-GLO. A digest of the protocol:
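Cells in RPMI/10% FBS, 5000 per well, exposed to a concentration range of test compound for 3 days. Viability read as ATP content by CellTiter-Glo luminescence after 10 min at room temperature; IC50 derived from the luminescence.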

Sequence of PI3Kδ (O00329 whole entry): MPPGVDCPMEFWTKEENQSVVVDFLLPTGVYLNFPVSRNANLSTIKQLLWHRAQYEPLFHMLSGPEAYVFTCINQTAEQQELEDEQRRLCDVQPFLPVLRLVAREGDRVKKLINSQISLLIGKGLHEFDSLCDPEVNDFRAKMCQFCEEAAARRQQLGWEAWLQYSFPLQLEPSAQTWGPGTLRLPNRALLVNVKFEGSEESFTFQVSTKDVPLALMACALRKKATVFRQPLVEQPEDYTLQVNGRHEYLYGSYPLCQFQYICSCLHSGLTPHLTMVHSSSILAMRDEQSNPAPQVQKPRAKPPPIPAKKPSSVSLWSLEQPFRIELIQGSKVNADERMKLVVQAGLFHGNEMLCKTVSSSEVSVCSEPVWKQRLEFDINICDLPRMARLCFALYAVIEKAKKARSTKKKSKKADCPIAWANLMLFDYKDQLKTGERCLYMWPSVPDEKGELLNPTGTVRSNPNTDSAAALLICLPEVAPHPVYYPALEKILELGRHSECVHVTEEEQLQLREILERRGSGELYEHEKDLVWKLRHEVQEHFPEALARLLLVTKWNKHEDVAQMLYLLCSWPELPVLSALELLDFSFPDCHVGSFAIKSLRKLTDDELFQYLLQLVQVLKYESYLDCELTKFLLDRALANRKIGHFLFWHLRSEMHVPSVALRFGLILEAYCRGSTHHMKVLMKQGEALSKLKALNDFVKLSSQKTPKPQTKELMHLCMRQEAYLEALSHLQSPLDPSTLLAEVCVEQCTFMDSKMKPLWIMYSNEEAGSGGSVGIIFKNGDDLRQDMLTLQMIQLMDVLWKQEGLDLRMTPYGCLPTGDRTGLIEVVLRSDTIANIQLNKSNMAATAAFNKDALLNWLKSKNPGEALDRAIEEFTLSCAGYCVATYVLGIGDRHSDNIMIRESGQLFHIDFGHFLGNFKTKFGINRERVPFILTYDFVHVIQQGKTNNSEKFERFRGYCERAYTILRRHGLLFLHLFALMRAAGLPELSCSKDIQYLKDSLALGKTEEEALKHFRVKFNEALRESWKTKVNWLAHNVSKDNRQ
Sequence of PI3Kδ (P27986 whole entry partner): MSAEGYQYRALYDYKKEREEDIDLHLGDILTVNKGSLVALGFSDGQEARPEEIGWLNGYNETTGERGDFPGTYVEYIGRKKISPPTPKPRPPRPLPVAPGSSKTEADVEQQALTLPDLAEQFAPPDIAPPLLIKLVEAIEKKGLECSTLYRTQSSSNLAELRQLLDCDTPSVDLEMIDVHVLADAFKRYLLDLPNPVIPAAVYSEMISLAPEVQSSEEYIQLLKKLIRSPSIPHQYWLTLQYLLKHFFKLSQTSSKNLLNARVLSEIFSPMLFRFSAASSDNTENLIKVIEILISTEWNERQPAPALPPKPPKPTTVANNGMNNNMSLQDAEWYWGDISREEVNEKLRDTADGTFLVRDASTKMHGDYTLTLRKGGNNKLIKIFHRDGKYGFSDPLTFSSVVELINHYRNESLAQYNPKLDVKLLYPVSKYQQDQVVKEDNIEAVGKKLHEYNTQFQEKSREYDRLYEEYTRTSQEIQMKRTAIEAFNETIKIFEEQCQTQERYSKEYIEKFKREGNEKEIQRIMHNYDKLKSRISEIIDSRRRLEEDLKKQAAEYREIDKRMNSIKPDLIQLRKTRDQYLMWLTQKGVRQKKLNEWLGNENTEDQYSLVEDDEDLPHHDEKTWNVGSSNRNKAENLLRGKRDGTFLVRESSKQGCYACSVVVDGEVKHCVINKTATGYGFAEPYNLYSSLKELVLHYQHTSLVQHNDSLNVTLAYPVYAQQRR

Regarding `Cc1nn(C(C)c2cc(Cl)c(F)c3c2OC(C)CN(C2CN(C(=O)OC(C)(C)C)C2)C3)c2ncnc(N)c12` (single isomer, unassigned) [Example 27, tert-Butyl 3-[9-[1-(4-amino-3-methyl-1H-pyrazolo[3,4-d]pyrimidin-1-yl)ethyl]-7-chloro-6-fluoro-2-methyl-2,3-dihydro-1,4-benzoxazepin-4(5H)-yl]azetidine-1-carboxylate], the IC50 at PI3Kδ was no more than 100 nM; in assay [1], no more than 500 nM. For the compound `CCC(=O)N1CC(N2Cc3c(C#N)c(Cl)cc(C(C)n4nc(C)c5c(N)ncnc54)c3OC(C)C2)C1` (stereo not shown) [Example 96, 9-[1-(4-amino-3-methyl-1H-pyrazolo[3,4-d]pyrimidin-1-yl)ethyl]-7-chloro-2-methyl-4-(1-propionylazetidin-3-yl)-2,3,4,5-tetrahydro-1,4-benzoxazepine-6-carbonitrile], the concentration for half-maximal inhibition (IC50) was no more than 100 nM against PI3Kδ and no more than 500 nM in assay [1] (Homo sapiens, SU-DHL-6, 72 h). Take `Cc1nn(C(C)c2cc(Cl)c(F)c3c2OCCCN(S(C)(=O)=O)C3)c2ncnc(N)c12` (stereo not shown) [Example 45, 1-{1-[8-Chloro-7-fluoro-5-(methylsulfonyl)-3,4,5,6-tetrahydro-2H-1,5-benzoxazocin-10-yl]ethyl}-3-methyl-1H-pyrazolo[3,4-d]pyrimidin-4-amine]: the 50% inhibitory concentration (IC50) is no more than 100 nM at PI3Kδ and no more than 500 nM in assay [1] (Homo sapiens, SU-DHL-6, 72 h). `COC(=O)N1CC(N2Cc3c(F)c(Cl)cc(C(C)n4nc(C)c5c(N)ncnc54)c3OC(C)C2)C1` (single isomer, unassigned) [Example 79, methyl 3-[9-[1-(4-amino-3-methyl-1H-pyrazolo[3,4-d]pyrimidin-1-yl)ethyl]-7-chloro-6-fluoro-2-methyl-2,3-dihydro-1,4-benzoxazepin-4(5H)-yl]azetidine-1-carboxylate] came in with an IC50 against PI3Kδ of no more than 100 nM.
